Measured values taken from patent US7888332B2, “Hydrazide-containing CFTR inhibitor compounds and uses thereof” (The Regents of the University of California, priority 2004, dated 2011).
Read-outs that look alike come from different tables or passages of the source.

What was measured:
CFTR [1] = molecular target: T1, CFTR (Homo sapiens, UniProt P13569); assay: Short-circuit current (apical Cl− current) analysis on permeabilized CFTR-expressing FRT cells; settings: for inhibition at 50 µM: FRT, read-out: % inhibition at 50 μM; for change of inhibitory potency relative to parent compound: vs GlyH-101 / GlyH-102
Target sequence in this assay (P13569 whole entry): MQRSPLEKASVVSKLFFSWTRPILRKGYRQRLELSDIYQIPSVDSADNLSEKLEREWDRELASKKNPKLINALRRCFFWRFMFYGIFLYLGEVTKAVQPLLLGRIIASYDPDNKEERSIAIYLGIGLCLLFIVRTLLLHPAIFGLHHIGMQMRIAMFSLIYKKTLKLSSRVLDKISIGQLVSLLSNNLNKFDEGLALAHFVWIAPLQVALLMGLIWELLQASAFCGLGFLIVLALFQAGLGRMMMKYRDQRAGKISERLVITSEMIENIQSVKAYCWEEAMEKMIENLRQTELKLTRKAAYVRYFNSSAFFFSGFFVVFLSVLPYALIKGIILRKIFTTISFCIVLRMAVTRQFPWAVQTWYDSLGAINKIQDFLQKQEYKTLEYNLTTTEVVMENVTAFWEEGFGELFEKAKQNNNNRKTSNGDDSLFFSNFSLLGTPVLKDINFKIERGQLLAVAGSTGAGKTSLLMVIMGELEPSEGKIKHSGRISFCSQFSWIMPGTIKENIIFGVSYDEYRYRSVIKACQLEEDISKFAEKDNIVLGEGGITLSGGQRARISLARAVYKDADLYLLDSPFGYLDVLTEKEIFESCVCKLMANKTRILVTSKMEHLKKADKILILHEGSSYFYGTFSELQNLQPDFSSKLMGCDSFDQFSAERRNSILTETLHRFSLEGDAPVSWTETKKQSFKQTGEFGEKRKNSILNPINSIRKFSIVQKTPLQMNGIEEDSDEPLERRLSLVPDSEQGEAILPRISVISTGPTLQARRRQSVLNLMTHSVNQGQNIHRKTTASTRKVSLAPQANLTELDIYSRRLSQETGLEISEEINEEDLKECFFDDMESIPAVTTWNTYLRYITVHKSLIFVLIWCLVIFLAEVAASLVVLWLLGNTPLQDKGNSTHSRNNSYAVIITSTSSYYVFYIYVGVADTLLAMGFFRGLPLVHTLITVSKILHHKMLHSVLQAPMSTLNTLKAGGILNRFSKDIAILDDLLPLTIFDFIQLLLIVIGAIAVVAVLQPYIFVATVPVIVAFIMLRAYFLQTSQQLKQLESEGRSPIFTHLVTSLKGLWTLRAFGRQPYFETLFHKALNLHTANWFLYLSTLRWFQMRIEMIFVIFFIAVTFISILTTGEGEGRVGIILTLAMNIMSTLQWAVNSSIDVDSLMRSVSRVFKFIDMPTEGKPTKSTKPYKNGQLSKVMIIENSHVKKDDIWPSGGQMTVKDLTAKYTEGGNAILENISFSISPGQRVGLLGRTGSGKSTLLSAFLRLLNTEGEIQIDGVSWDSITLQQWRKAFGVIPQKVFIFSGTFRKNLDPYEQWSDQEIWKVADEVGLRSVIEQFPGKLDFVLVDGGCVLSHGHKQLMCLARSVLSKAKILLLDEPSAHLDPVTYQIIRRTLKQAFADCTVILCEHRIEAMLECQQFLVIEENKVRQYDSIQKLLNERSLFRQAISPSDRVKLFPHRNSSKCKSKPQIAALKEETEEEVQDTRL

CFTR [2] = molecular target: T1, CFTR; assay: Whole-cell patch-clamp on FRT cells expressing CFTR; format: cell-based; set-up: expressed in transfected cells; host or cells: Fisher Rat Thyroid (FRT) cells, stably transfected; settings: GlyH-101 at submaximal concentrations; CFTRinh-172 5 μM
Experimental: Patch-clamp experiments were carried out at room temperature on FRT cells stably expressing wildtype CFTR. Cell-attached and whole-cell configurations were used (Hamill et al., Pflugers Arch. 391:85-100, 1981). The cell membrane was clamped at specified voltages using an EPC-7 patch-clamp amplifier (List Medical). Data were filtered at 500 Hz and digitized at 2000 Hz. For whole-cell experiments the pipette solution contained (in mM): 120 CsCl, 10 TEA-Cl, 0.5 EGTA, 1 MgCl2, 40 mannitol, 10 Cs-HEPES and 3 mM MgATP (pH 7.3). For cell attached experiments EGTA was replaced with 1 mM CaCl2. The bath solution for whole-cell experiments contained (in mM): 150 NaCl, 1 CaCl2, 1 MgCl2, 10 glucose, 10 mannitol, 10 Na-TES (pH 7.4). In cell-attached experiments the bath solution contained (in mM): 130 KCl, 2 NaCl, 2 CaCl2, 2 MgCl2, 10 glucose, 20 mannitol, and 10 K-Hepes (pH 7.3). Inhibitors were applied by extracellular perfusion. CFTR channel activity in cell-attached patches was analyzed as described previously (Taddei et al., FEBS Lett. 558:52-56, 2004).
The mechanism of CFTR block by GlyH-101 was studied using the whole-cell configuration of the patch-clamp technique. After maximal activation of CFTR in stably transfected FRT cells by 5 μM forskolin, current-voltage relationships were measured at GlyH-101 concentrations from 0 to 50 μM. […] Extracellular perfusion with 10 μM GlyH-101 produced an immediate reduction in current that was strongly dependent on membrane potential (FIG. 4A, right panel). At more positive membrane potentials outward positive currents (Cl^− movement into the cell) were reduced compared to inward currents. […] Data for the thiazolidinone 3-[(3-trifluoromethyl)phenyl]-5-[(4-carboxyphenyl)methylene]-2-thioxo-4-thiazolidinone (referred to herein as CFTRinh-172) (5 μM) is shown for comparison. […] FIG. 4C summarizes percentage CFTR current block as a function of GlyH-101 concentration at different membrane voltages.
Target sequence in this assay (P13569 whole entry): as above

[3] = Intestinal absorption in closed mid-jejunal loops; format: in vivo; settings: mice, 2 hours
Experimental: Absorption studies were performed using mid-jejunal loops created as described above. […] After 2 hours loop fluid was withdrawn and optical absorbance of test compound and FITC were measured (OD342/OD494nm). Percentage intestinal absorption was computed assuming zero absorption of FITC-dextran.
Intestinal absorption was measured in mice in vivo from the disappearance of MalH compounds from the lumens of closed mid-jejunal loops over 2 hours. In these experiments mannitol was included in the MalH-containing solutions to prevent fluid absorption. Absorption rates were referenced against a large FITC-dextran, which was assumed to undergo no absorption over the 2 hour study.

CFTR [4] = molecular target: T1, CFTR; set-up: host or cells: 'permeabilized cell preparations' and 'most intact epithelial cells' (not specified); settings: cited from earlier work
Target sequence in this assay (P13569 whole entry, species assumed): as the sequence (P13569 whole entry) above

[5] = Spectrophotometric pH titration (pKa); format: physicochemical; settings: read-out: pKa, secondary amine
Experimental: FIG. 5A is a graph illustrating the pH-dependent absorbance changes (right panel) of the chemical compounds (10 μM) (corresponding chemical structures, left panel) in NaCl (100 mM) containing MES, HEPES, boric acid, and citric acid (each 10 mM) titrated to different pH using HCl/NaOH. Absorbance changes measured at analytical wavelengths of 346, 348, 346, and 236 nm (top to bottom).

[6] = system: upper airway CFTR Cl− conductance; assay: Nasal potential difference measurements in mice; settings: compound in all solutions (100 μM)
[7] = Ki, Table 1, Group I, concentration giving 50% inhibition of CFTR Cl− conductance
[8] = Ki, Table 3, Group III, concentration giving 50% inhibition of CFTR Cl− conductance
[9] = Ki, Table 4, Group IV, concentration giving 50% inhibition of CFTR Cl− conductance
[10] = Ki, Table 2, Group II, concentration giving 50% inhibition of CFTR Cl− conductance
[11] = Table 1, Group I, concentration giving 50% inhibition of CFTR Cl− conductance

Row | Compound | inhibition at 50 µM (CFTR [1]) [%] | Ki (CFTR [1]; [7]) [µM] | further results
1 | COc1c(Br)cc(C=NNC(=O)CNc2ccc3ccccc3c2)c(O)c1Br [GlyH-103] | 56 | 20 | –
2 | O=C(NNCc1cc(Br)c(O)c(Br)c1O)C(=O)Nc1ccc2ccccc2c1 [OxaH-303] | 70 | – | Ki (CFTR [1]; [8]): 10 µM
3 | O=C(CNc1ccc(Cl)cc1)NN=Cc1cc(Br)c(O)c(Br)c1O [GlyH-115] | 91 | 5 | –
4 | Cc1ccc(CC(=O)NN=Cc2cc(Br)c(O)c(Br)c2)cc1 [AceH-404] | 63 | – | Ki (CFTR [1]; [9]): 15 µM
5 | CC(=NNC(=O)CNc1ccc2ccccc2c1)c1cc(Br)c(O)c(Br)c1 [GlyH-109] | 100 | 2.5 | –
6 | O=C(NNC(=O)c1cc(Br)c(O)c(Br)c1O)C(=O)Nc1ccc2ccccc2c1 [OxaH-203] | – | – | Ki (CFTR [1]; [10]): > 50 µM
7 | O=C(CNc1ccc2ccccc2c1)N/N=C/c1cc(Br)c(O)c(Br)c1 [GlyH-102] | – | – | % inhibition at 50 μM (CFTR [1]; Table 1, Group I): 98%; Ki (CFTR [1]; [11]): 5 µM
8 | O=C(NNCc1cc(Br)c(O)c(Br)c1)C(=O)Nc1ccc2ccccc2c1 [OxaH-304] | 78 | – | Ki (CFTR [1]; [8]): 12 µM
9 | O=C(O)c1ccc(C=C2SC(=S)N(c3cccc(C(F)(F)F)c3)C2=O)cc1 [CFTRinh-172, 3-[(3-trifluoromethyl)phenyl]-5-[(4-carboxyphenyl)methylene]-2-thioxo-4-thiazolidinone] | – | – | current-voltage relationship (CFTR [2]): linear; absorption from closed mid-jejunal loops [3]: > 90%; Ki (CFTR [4]; most intact epithelial cells): 2 to 5 µM; Ki (CFTR [4]; permeabilized cell preparations): 0.2 to 0.3 µM
10 | CC(Nc1ccc2ccccc2c1)C(=O)NN=Cc1cc(Br)c(O)c(Br)c1 (stereo not shown) [GlyH-107] | 80 | 10 | –
11 | O=C(CNc1ccc2ccccc2c1)NNCc1cc(Br)c(O)c(Br)c1 [GlyH-302] | 55 | – | Ki (CFTR [1]; [8]): ~50 µM
12 | CC(=NNC(=O)C(=O)Nc1ccc2ccccc2c1)c1cc(Br)c(O)c(Br)c1 [OxaH-113] | 90 | 3 | –
13 | Cc1ccc(CC(=O)NN=Cc2cc(Br)c(O)c(Br)c2O)cc1 [AceH-403] | 54 | – | Ki (CFTR [1]; [9]): 10 µM
14 | O=C(NN=Cc1cc(Br)c(O)c(Br)c1)C(=O)Nc1ccc2ccccc2c1 [OxaH-111] | 52 | 2.5 | change of inhibitory potency relative to parent compound (CFTR [1]): two-three fold greater
15 | Cc1ccc(NCC(=O)NN=Cc2cc(Br)c(O)c(Br)c2O)cc1 [GlyH-116] | 79 | 10 | –
16 | O=C(CNc1cccc2ccccc12)NN=Cc1cc(Br)c(O)c(Br)c1 [GlyH-105] | 87 | 15 | –
17 | O=C(NNC(=O)c1cc(Br)c(O)c(Br)c1)C(=O)Nc1ccc2ccccc2c1 [OxaH-204] | – | – | Ki (CFTR [1]; [10]): > 50 µM
18 | CC(=NNC(=O)C(=O)Nc1ccc2ccccc2c1)c1cc(Br)c(O)c(Br)c1O [OxaH-112] | 95 | 3 | –
19 | O=C(CNc1cccc2ccccc12)NN=Cc1cc(Br)c(O)c(Br)c1O [GlyH-104] | 86 | 12 | change of inhibitory potency relative to parent compound (CFTR [1]): ten-fold
20 | CCOC(=O)CNc1ccc2ccccc2c1 [ethyl N-(2-napthalenyl) glycinate, ethyl N-(2-naphthalenyl)glycinate] | – | – | pKa [5]: ~4.7
21 | O=S(=O)(O)c1cc(N=C=S)ccc1C=Cc1ccc(N=C=S)cc1S(=O)(=O)O [DIDS, reference compound] | – | – | inhibition of (CFTR-independent) hyperpolarization produced by low Cl− [6]: partial inhibition
22 | O=C(CNc1ccc2ccccc2c1)NNC(=O)c1cc(Br)c(O)c(Br)c1 [GlyH-202, 3,5-dibromo-4-hydroxy-[2-(2-napthalenamine)aceto]benzoic acid hydrazide] | 57 | – | Ki (CFTR [1]; [10]): 22 µM
23 | O=C(CNc1ccc(Cl)cc1)NN=Cc1cc(Br)c(O)c(Br)c1 [GlyH-114] | 95 | 5 | –
24 | O=C(COc1ccc2ccccc2c1)NN=Cc1cc(Br)c(O)c(Br)c1 [AceH-402] | 86 | – | Ki (CFTR [1]; [9]): 17 µM
25 | O=C(NN=Cc1cc(Br)c(O)c(Br)c1O)C(=O)Nc1ccc2ccccc2c1 [OxaH-110, N-2-napthalenyl-[(3,5-dibromo-2,4-dihydroxyphenyl)methylene]oxamic acid hydrazide] | 86 | 2 | Ki (CFTR [1]; apparent Ki, CFTR stimulated by 100 μM CPT-cAMP): ~2 µM; change of inhibitory potency relative to parent compound (CFTR [1]): two-three fold greater
26 | CC(=NNC(=O)CNc1ccc2ccccc2c1)c1cc(Br)c(O)c(Br)c1O [GlyH-108] | – | – | % inhibition at 50 μM (CFTR [1]; Table 1, Group I): 81%; Ki (CFTR [1]; [11]): 10 µM
27 | CC(Nc1ccc2ccccc2c1)C(=O)NN=Cc1cc(Br)c(O)c(Br)c1O (stereo not shown) [GlyH-106] | – | – | % inhibition at 50 μM (CFTR [1]; Table 1, Group I): 91%; Ki (CFTR [1]; [11]): 6 µM
28 | O=C(COc1ccc2ccccc2c1)NN=Cc1cc(Br)c(O)c(Br)c1O [AceH-401] | 84 | – | Ki (CFTR [1]; [9]): 21 µM
